Data on five compounds can be found in ChEMBL document CHEMBL1201862, “PubChem BioAssay data set” (2004).

SMILES strings stand for the structures.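 Cells were grown in 96-well plates and exposed to each compound for 48 hours at five concentrations; endpoints were interpolated linearly between bracketing concentrations, or set to the highest concentration if not reached. GI50 = concentration required for 50% inhibition of growth.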 Calls of active or inactive are those of the source. Cut-off read from the data, not from the text of the source: active = GI50 up to about 1.1 µM and inactive = higher.

Some test systems named below: HT-29; DLD-1; SF-539; NCI-H226; UACC-62; HCC 2998; HCT-15; OVCAR-4; SK-MEL-5; SW-620; COLO 205; SNB-75; OVCAR-3; M14; EKVX; IGROV-1; SN12C.
Common to all, as to experiment: DTP human tumour cell line panel, 48 h

For the compound `CNC(=O)CN(CC(=O)NC)C(=O)NC`, the GI50 in the assay on HT-29, in the assay with DLD-1, in the assay on SF-539, with NCI-H226, in the assay with UACC-62 and in the assay with HCC 2998 was > 100 µM (inactive) each time. Further, the GI50 (commonly the concentration giving 50% growth inhibition) in the assay with HCT-15 is greater than 100 µM; with OVCAR-4 it was > 100 µM (inactive); in the assay with SK-MEL-5, > 100 µM (inactive); with SW-620, > 100 µM (inactive); in the assay with COLO 205 it was > 100 µM (inactive); in the assay with SNB-75 it was > 100 µM (inactive). The GI50 in the assay on OVCAR-3, with M14, in the assay with EKVX and in the assay on IGROV-1 was > 100 µM (inactive) throughout.

Consider `CN1C(=O)n2c(nc3ccccc32)C(N=[N+]=[N-])(N=[N+]=[N-])C1=O` (centres undefined), for which the GI50 with HT-29, in the assay on DLD-1, with SF-539, in the assay on NCI-H226, in the assay on UACC-62 and in the assay on HCC 2998 was > 100 µM (inactive) each time. Besides, the GI50 with HCT-15 is 99.1 µM; in the assay with OVCAR-4 it was > 100 µM (inactive); in the assay on SK-MEL-5, > 100 µM (inactive); in the assay on SW-620 it was > 100 µM (inactive); in the assay on COLO 205 it was > 100 µM (inactive); in the assay on SNB-75, 57.3 µM (inactive). Moreover, the GI50 in the assay with OVCAR-3, in the assay with M14, with EKVX and in the assay on IGROV-1 was > 100 µM (inactive) throughout.

In the case of `CC(C)C(=O)NS(=O)(=O)c1ccccc1`, the GI50 in the assay on HT-29, in the assay on DLD-1, with SF-539, with NCI-H226, in the assay with SN12C and in the assay with UACC-62 was > 100 µM (inactive) in each case. For the same compound, the GI50 with HCC 2998, in the assay on OVCAR-4, in the assay on SW-620, in the assay with COLO 205, in the assay with SNB-75 and in the assay with OVCAR-3 was > 100 µM (inactive) each time. Besides, the GI50 with M14, with EKVX and in the assay with IGROV-1 was > 100 µM (inactive) throughout.

Regarding `COC(=O)c1cc(O)ccc1NC(=O)c1ccc(O)cc1`, the GI50 in the assay on HT-29, in the assay on DLD-1, with SF-539, in the assay with NCI-H226, in the assay on UACC-62 and in the assay with HCC 2998 was > 100 µM (inactive) in each case. The GI50 was greater than 100 µM with HCT-15; > 100 µM (inactive) with OVCAR-4; > 100 µM (inactive) with SK-MEL-5; > 100 µM (inactive) with SW-620; > 100 µM (inactive) in the assay with COLO 205; > 100 µM (inactive) with SNB-75. The GI50 in the assay with OVCAR-3, with M14, in the assay on EKVX and in the assay on IGROV-1 was > 100 µM (inactive) each time.

Consider `COC(=O)N1CCc2c(nc(N(C)CCO)[nH]c2=O)C1`, for which the GI50 in the assay with HT-29, with DLD-1, with SF-539, in the assay on NCI-H226, with SN12C and in the assay with UACC-62 was > 100 µM (inactive) in each case. Besides, the GI50 in the assay with HCC 2998 was > 100 µM (inactive); in the assay on HCT-15 it was greater than 100 µM; with SK-MEL-5, > 100 µM (inactive); in the assay with SW-620, > 100 µM (inactive); with COLO 205, > 100 µM (inactive); in the assay on SNB-75, > 100 µM (inactive). The GI50 with OVCAR-3, with M14, in the assay on EKVX and in the assay on IGROV-1 was > 100 µM (inactive) throughout.
